According to EP4516108A1, “METHOD FOR PRESERVING A BAKERY PRODUCT USING CHITOSAN AS INGREDIENT” (Mauri Technology B.V., priority 2023, dated 2025):

Key:
A. niger = experiment: Accelerated shelf-life testing (ASLT): time of appearance (TOA) of mould on inoculated breadcrumbs
Experimental: Breads were made by mixing the dough ingredients from Table 1. The wt.% for several ingredients are given based on flour weight (Flour Weight Based, FWB). For the prepared recipes the difference with total dry weight is insubstantial. The following breads were prepared: a control without any preservatives, a reference containing 0.3% flour weight based (FWB) calcium propionate (CalPro), and a bread containing 1% chitosan (KitoZyme, Belgium) with number average MW of 15 kDa and degree of deacetylation (DDA) of 70%. […] Ingredients were mixed using a spiral mixer for 10 minutes. Afterwards the dough for each trial was divided into three pieces of 520 g, rounded manually, and placed into bread tins. The dough pieces were placed in a proofing cabinet to rise at 40 °C and 80% relative humidity until they reach similar height (fermentation time between 60-70 min). The breads were baked for 22 minutes in a deck oven at 260 (bottom) and 230 (top) °C.
Following baking, the breads were cooled in a HEPA-filtered chamber for 90 min. One bread was used for pH measurement and two breads were subjected to ASLT.
To perform ASLT, the remaining two breads were sliced to 13 mm slices. The crumb (inner part of breads) of three random slices from each bread were cut out using a cookie cutter (3.2 cm diameter) and placed in sterile 6-well plates (2x breads × 3 slices). Two 6-well plates were prepared per bread type. Each bread piece in a 6-well plate was inoculated with 3 aliquots of ±500 spores (20 pL) of either A. niger or P. paneum. Therefore, 18 spots of each mould were inoculated per trial (6 bread piece × 3 aliquots). Freeze-dried spores were used in all experiments. The inoculated breads incubated at room temperature of around 21 °C untill visible mould appearance. The appearance of the moulds was imaged by taking photographs. The images were inspected visually, and the TOA was defined as mould appearance in hours after mould inoculation.
Due to limited availability of the high MW chitosan samples, ASLT was performed at small scale in bread rolls. […]

P. paneum = experiment: Accelerated shelf-life testing (ASLT): time of appearance (TOA) and growth pattern of mould on inoculated breadcrumbs; format: cell-based, Penicillium paneum; details: Example 1, tin breads, ±500 spores, around 21 °C; CalPro 0.3% FWB, chitosan 1% FWB (about 1 wt.%)
[1] = cited from earlier work

Compound: CCC(=O)[O-].CCC(=O)[O-].[Ca+2] [CalPro, calcium propionate]
- effectiveness against A. niger, CalPro compared to chitosan (A. niger; CalPro 0.3% FWB vs chitosan 1% FWB): more effective
- TOA of A. niger improved compared to control without preservative (A. niger; CalPro 0.3% FWB, FWF 0.78% FWB, chitosan >0.5 wt.%, alone or in combination): approximately 50%
- increased TOA of A. niger compared to control bread without preservatives (A. niger; Example 1, tin breads, ±500 spores, around 21 °C, CalPro 0.3% FWB, chitosan 1% FWB (about 1 wt.%)): 80%
- increased TOA of P. paneum compared to control bread without preservatives (P. paneum): 17%

Compound: CC(O)C(=O)O (stereo not drawn) [lactic acid]
- pKa [1]: about 3.85

Compound: C/C=C/C=C/C(=O)O [sorbic acid]
- pKa [1]: about 4.76
